Values joined by “and” are separate entries in the source; they are usually repeats but may differ in a detail not shown here. Equal entries are not always repeated. Where two headings read alike, the source gives them in different places. Square brackets hold non-standard residues; d marks the D form. Primed or numbered codes have the meaning given here. Ends that are not written are not given here. Peptide text beside a SMILES is read from it. * marks the point of attachment. d1Nal = N[C@H](Cc1cccc2ccccc12)C(=O)O; Palmitoyl = CCCCCCCCCCCCCCCC(=O)*; PEG2′ = not defined here
How the values were obtained:
[1] = biological target: T1, Ghrelin receptor (Homo sapiens, UniProt Q92847); experiment: Inositol phosphate turnover assay in COS-7 cells transfected with the Ghrelin receptor; conditions: for Δeff (%): efficacy, mean ± SEM of |Efficacymax - Efficacymin|; for x-fold over No. 2: EC50 relative to peptide 2
T1 sequence (Q92847 whole entry, species assumed): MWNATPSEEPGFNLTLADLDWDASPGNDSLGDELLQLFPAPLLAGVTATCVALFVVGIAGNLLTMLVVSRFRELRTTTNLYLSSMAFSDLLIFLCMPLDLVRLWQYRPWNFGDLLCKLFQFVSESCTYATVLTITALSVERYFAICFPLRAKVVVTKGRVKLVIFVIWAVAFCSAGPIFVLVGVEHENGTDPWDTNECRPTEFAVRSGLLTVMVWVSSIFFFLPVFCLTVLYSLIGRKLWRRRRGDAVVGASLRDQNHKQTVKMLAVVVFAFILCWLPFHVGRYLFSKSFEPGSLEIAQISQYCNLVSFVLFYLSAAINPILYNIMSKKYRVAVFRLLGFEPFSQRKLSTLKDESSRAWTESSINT
Experimental: Data were analyzed with GraphPad Prism 6.0 program (GraphPad Software, San Diego, CA, USA). EC50, pEC50 and Emax values were obtained from concentration–response curves. All signal transduction assays were performed in duplicate and repeated at least two times independently.

[2] = biological target: T1, Ghrelin receptor; experiment: Competitive binding assay with ^125I-His-Ghrelin in COS-7 cells stably transfected with the Ghrelin receptor; design: expressed in transfected cells; host or cells: COS-7; conditions: for x-fold over Ghrelin: Ki relative to Ghrelin; for x-fold over 2: Ki relative to peptide 2; for Ki: competition with ^125I-His-Ghrelin, read-out: Ki ± SD
Experimental: Each experiment was performed in triplicates. IC50 values of the binding curves were calculated by nonlinear regression on a sigmoidal dose-response based model by using program GraphPad Prism 6.0. Ki values were calculated by Cheng-Prusoff equation.

[3] = tested on: DU-145 tumors; experiment: Biodistribution of 10c in DU-145 tumor bearing mice with blocking; type: in vivo; conditions: one hour after injection
Experimental: (§1) The tumor mice with xenotransplanted PC-3 or DU-145 tumors were used when the tumors reached 0.54 ± 0.34 g or 0.18 ± 0.09 g (mean ± SD, n = 9), respectively. […] The mice were sacrificed one hour after injection and the organs and tissues were extracted. The activity measurements and calculations were carried out as described for the rat biodistribution experiments.

[4] = design: species or system rats; conditions: rat, in vivo
[5] = tested on: PC-3 tumors; design: species or system mice; conditions: mouse, in vivo
Experimental: (§2) Anesthetized, spontaneously breathing animals were allowed to stabilize for 10 min after preparation. The animals were positioned on a heated bed to maintain the body temperature at 37°C. The PET studies were carried out with a NanoScanPET/CT (Mediso, Hungary) or a microPET P4® (Siemens preclinical solutions, Knoxville, TN, USA). The activity of the injection solution was measured in a well counter (Isomed 2000, Dresden, Germany) cross-calibrated to the PET scanners. A 10 min transmission scan was recorded during this time for each subject by using a rotating point source of ^57Co (microPET). The transmission scans were used to correct the emission scan for γ-ray attenuation caused by body tissues and supporting structures; it was also used to demarcate the body field for image registration. […] At the end of the experiment, the animals were deeply anesthetized and sacrificed by an intravenous injection of potassium chloride. Acquisition was performed in 3D list mode. Emission data were collected continuously. The list mode data were sorted into sinograms with 32 or 38 frames (15 × 10 s, 5 × 30 s, 5 × 60 s, 4 × 300 s, 3 × 600 s, or 9 × 600 s). The data were decay-, scatter-, and attenuation-corrected. The frames from the microPET were reconstructed by Ordered Subset Expectation Maximization applied to 3D sinograms (OSEM3D) with 14 subsets, 15 OSEM3D iterations, 25 maximum a posteriori (MAP) iterations, and 1.8 mm resolution using the […] algorithm (Siemens Preclinical Solutions, Knoxville, TN, USA). The voxel size was 0.07 by 0.07 by 0.12 cm. The PET images measured with the nanoScanPET/CT were reconstructed using a three-dimensional Ordered Subsets Expectation Maximization (3D-OSEM) algorithm (Tera-Tomo, Mediso Ltd., Hungary) into dynamic frames as described and with a voxel size of 0.05 cm. No correction for partial volume effects was applied. The image volume data were converted to Siemens ECAT7 format for further processing and were then analyzed using the ROVER software (ABX GmbH, Radeberg, Germany). Masks for defining three-dimensional regions of interest (ROI) were set and the ROI's were defined by thresholding and ROI time activity curves (TAC) were derived for the subsequent data analysis. […] The ROIs were so determined that no surrounding tissue was included. The ROI data and TAC were further analyzed using R (R is available as Free Software under the terms of the Free Software Foundation's GNU General Public License in source code form) and especially developed program packages (Jörg van den Hoff, Frank Hofheinz, Helmholtz-Zentrum Dresden-Rossendorf, Dresden, Germany).

[6] = tested on: DU-145 tumors; design: species or system mice; conditions: mouse, in vivo
Experimental: as §2

[7] = rat, in vivo
Experimental: Biodistribution in distinct organs and tissues of healthy rats was measured at 5 and 60 min after single intravenous injection of the ^68Ga- or ^64Cu-radiotracers 9b-c, 10b-c, and 15b-c in rats (see ^68Ga-tracers in Figure 3 and ^64Cu-tracers in Figure 4).
The molar activity was approximately 30 GBq × mmol^–1 at the time of injection (Table 3). […] Animals were sacrificed at 5 and 60 min post injection. Blood and the major organs were collected, weighed, and counted in a Wallac WIZARD automatic gamma counter (PerkinElmer, Germany). The radioactivity of the samples was decay-corrected and calibrated by comparing the counts in tissue with the counts in aliquots of the injected radiotracer that had been measured in the gamma counter at the same time. The activity amount in organs that could be completely extracted was expressed as percent of injected dose (% ID). The activity concentrations in tissues were calculated as standardized uptake values [SUV = (activity × mL^–1 tissue)/(injected activity/body weight), mL × g^–1)]. The SUV was used for better comparison within animals of different size and weight and with other species and to compare the biodistribution and the PET data.

[8] = design: species or system mice; conditions: mouse, in vivo
Experimental: as §1

[9] = tested on: PC-3 tumors; experiment: Biodistribution of 10c in PC-3 tumor bearing mice with blocking; type: in vivo; conditions: one hour after injection
Experimental: as §1

[10] = EC50, inverse agonist potency, COS-7 cells transfected with the Ghrelin receptor
[11] = pEC50 ± SEM, COS-7 cells transfected with the Ghrelin receptor
[12] = COS-7 cells transfected with the Ghrelin receptor
[13] = inverse agonist potency, COS-7 cells transfected with the Ghrelin receptor

Row | Molecule | Δeff (%) [1] | pEC50 ± SEM [1, 12] | x-fold over No. 2 [1] | EC50 [1, 13] [nM] | further results
1 | CC(C)C[C@H](NC(=O)[C@@H](Cc1c[nH]c2ccccc12)NC(=O)[C@H](Cc1ccccc1)NC(=O)[C@@H](Cc1cccc2ccccc12)NC(=O)[C@@H](N)CCCCN)C(=O)N[C@@H](CCCCN)C(N)=O [compound 3, K-(D-1-Nal)-FwLK-NH2] (H-K[d1Nal]F[dW]LK-NH2) | 42% and 42 ± 1% | – | – | – | EC50 [1, 10]: 162 nM; EC50 [1, 11]: 158 nM
2 | [^natGa]Ga-NODAGA-KK-(D-1-Nal)-FwLL-NH2 [10a] | 98% and 98 ± 4% | 7.5 ± 0.07 | 8 | 34.7 | x-fold over Ghrelin [2]: 57; x-fold over 2 [2]: 6; Ki [2]: 30.3 ± 7.5 nM
3 | Palm-KK-(D-1-Nal)-FwLK[^natGa]Ga-NODAGA-NH2 [17a] | 85 ± 6% | 6.2 ± 0.10 | 132 | 592 | –
4 | K(Palm)-K-(D-1-Nal)-FwLK[^natGa]Ga-NODAGA-NH2 [18a] | 75 ± 6% | 6.6 ± 0.10 | 59 | 267 | –
5 | PEG2-KK-(D-1-Nal)-FwLL-NH2 [compound 8] | 85 ± 3% | 6.3 ± 0.08 | 111 | 499 | –
6 | CCCCCCCCCCCCCCCC(=O)N[C@@H](CCCCN)C(=O)N[C@@H](CCCCN)C(=O)N[C@H](Cc1cccc2ccccc12)C(=O)N[C@@H](Cc1ccccc1)C(=O)N[C@H](Cc1c[nH]c2ccccc12)C(=O)N[C@@H](CC(C)C)C(=O)N[C@@H](CC(C)C)C(N)=O [compound 6, Palm-KK-(D-1-Nal)-FwLL-NH2] (Palmitoyl-KK[d1Nal]F[dW]LL-NH2) | 86 ± 2% | – | 2 | – | EC50 [1, 10]: 11 nM
7 | K-(D-1-Nal)-FwLK(PEG2)-NH2 [compound 7] | 61 ± 3% | – | 37 | – | –
8 | [^natGa]Ga-NODAGA-K(Palm)-K-(D-1-Nal)-FwLL-NH2 [12a] | 92% and 92 ± 4% | 7.7 ± 0.06 | 5 | 20.3 | x-fold over Ghrelin [2]: 126; x-fold over 2 [2]: 14; Ki [2]: 66.9 ± 25.7 nM
9 | Palm-K[^natGa]Ga-NODAGA-K-(D-1-Nal)-FwLL-NH2 [13a] | 92% and 92 ± 3% | 7.5 ± 0.06 | 6 | 28.7 | –
10 | [^natGa]Ga-NODAGA-KK-(D-1-Nal)-FwLK(Palm)-NH2 [15a] | 89 ± 3% | 7.8 ± 0.05 | 4 | 16.5 | x-fold over Ghrelin [2]: 21; x-fold over 2 [2]: 2; Ki [2]: 11 ± 4.3 nM
11 | [^natGa]Ga-NODAGA-K-(D-1-Nal)-FwLL-NH2 [9a] | 88% and 88 ± 8% | 7.2 ± 0.10 | 14 | 64.8 | –
12 | PEG2-K[^natGa]Ga-NODAGA-K-(D-1-Nal)-FwLL-NH2 [14a] | – | – | > 1000 | > 1000 | EC50 ([1]; value given in the text): 1800 ± 600 nM
13 | K-(D-1-Nal)-FwLK(PEG2)-NH2 (K[d1Nal]F[dW]LK(PEG2′)-NH2) [compound 7] | – | 6.8 ± 0.10 | – | 166 | –
14 | CC(C)C[C@H](NC(=O)[C@H](CC(C)C)NC(=O)[C@@H](Cc1c[nH]c2ccccc12)NC(=O)[C@H](Cc1ccccc1)NC(=O)[C@@H](Cc1cccc2ccccc12)NC(=O)[C@H](CCCCN)NC(=O)[C@@H](N)CCCCN)C(N)=O [compound 4, KK-(D-1-Nal)-FwLL-NH2] (H-KK[d1Nal]F[dW]LL-NH2) | 63% and 63 ± 2% | – | – | – | EC50 [1, 10]: 13 nM; EC50 [1, 11]: 12.6 nM
15 | CCCCCCCCCCCCCCCC(=O)NCCCC[C@H](NC(=O)[C@H](CC(C)C)NC(=O)[C@@H](Cc1c[nH]c2ccccc12)NC(=O)[C@H](Cc1ccccc1)NC(=O)[C@@H](Cc1cccc2ccccc12)NC(=O)[C@@H](N)CCCCN)C(N)=O [compound 5] (H-K[d1Nal]F[dW]LK(Palmitoyl)-NH2) | 85% and 85 ± 2% | – | – | – | EC50 [1, 10]: 3.5 nM; EC50 [1, 11]: 3.16 nM
16 | [^64Cu]Cu-NODAGA-NH-K-K-(D-1-NaI)-F-w-L-L-NH2 [10c] | – | – | – | – | tumor to muscle ratio as percent of control ([3]; blocked with 1 mg/kg Ghrelin): 71.0 ± 10.7%; tumor to muscle ratio as percent of control ([3]; blocked with 1 mg/kg KKD): 59.7 ± 30.2%; original compound found in the kidneys [4]: 1%; original compound found in the liver [4]: 14%; original compound found in the urine [4]: 6%; activity concentration in tumor [5]: 2.02 ± 0.28 SUV; activity concentration in tumor ([5]; 1 mg/kg): 0.99 ± 0.05 SUV; activity concentration in tumor [6]: 1.34 ± 0.24 SUV; activity concentration in tumor ([6]; 1 mg/kg): 0.68 ± 0.05 SUV; brain uptake [7]: 0.06-0.1 SUV; specific tumor uptake relative to the compound of Charron et al. [8]: approximately 10 times; uptake in organs and tissues [8]: > 0.3 SUV; tumor to muscle ratio as percent of control ([9]; blocked with 1 mg/kg Ghrelin): 83.4 ± 18.4%; tumor to muscle ratio as percent of control ([9]; blocked with 1 mg/kg KKD): 51.2 ± 4.5%
17 | K[^natGa]Ga-NODAGA-K-(D-1-Nal)-FwLK(Palm)-NH2 [16a] | 90 ± 4% | 7.9 ± 0.07 | 3 | 13.6 | –

Reference: publication PMC7939532 (Oncotarget, 2021)
